US20140234253A1, “Combination Treatments For Hepatitis C” (GlaxoSmithKline LLC, priority 2011, published 2014)
Values after ≈ are worked out from the molar mass of the structure shown.

Assay: solubility of suspension in buffer
Type: physicochemical
Conditions: aqueous buffer; in the buffer at 37° C. when implanted

CC1(C)O[C@@H]2C[C@H]3[C@@H]4CCC5=CC(=O)C=C[C@]5(C)[C@@]4(F)[C@@H](O)C[C@]3(C)[C@]2(C(=O)CO)O1 [triamcinolone acetonide]
solubility: ~0.019 mg/mL (≈ 43.7 µM)
